The record followed here is patent US5420282A, “Thiopyrano(2,3,4-c,d) indolyloxime ether alkylcarboxylates” (Abbott Laboratories, priority 1994, dated 1995).

The test deals with calcium ionophore-induced LTB4 biosynthesis. Briefly: Inhibition of calcium ionophore-induced LTB4 biosynthesis in human whole blood. The note with it: human heparinized whole blood; 15 min preincubation at 37° C.; A23187 8.3 μM, 30 minutes; LTB4 by radioimmunoassay; read-out: IC50, inhibition of leukotriene biosynthesis in human whole blood. It counts as cell-based. The procedure:
Inhibition of leukotriene biosynthesis was evaluated in an assay, involving calcium ionophore-induced LTB4 biosynthesis expressed human whole blood. Human heparinized whole blood was proincubated with test compounds or vehicle for 15 min at 37° C. followed by calcium ionophore A23187 challenge (final concentration of 8.3 μM) and the reaction terminated after 30 minutes by adding two volumes of methanol containing prostaglandin B2 as an internal recovery standard. The methanol extract was analyzed for LTB4 using a commercially available radioimmunoassay.

Take `CC1Cc2c(OCc3ccc4ccccc4n3)ccc3c2c(c(CC(C)(C)C=NOCC(=O)O)n3Cc2ccc(Cl)cc2)S1` (centres unmarked) [Example 1, 3-[1-(4-chlorobenzyl)-4-methyl-6-(quinolin-2-ylmethoxy]-4,5-dihydro-1H-thiopyrano[2,3,4-c,d]indol-2-yl]-2,2dimethylpropionaldehyde oxime-O-acetic acid]: the IC50 turned out to be 2.7 µM.

With `CC1Cc2c(OCc3ccc(-c4ccccc4)cn3)ccc3c2c(c(CC(C)(C)C=NOCC(=O)O)n3Cc2ccc(Cl)cc2)S1` (centres unmarked) [Example 2, 3-[1-(4-chlorobenzyl)-4-methyl-6-(5-phenylpyridin-2-ylmethoxy]-4,5-dihydro-1H-thiopyrano[2,3,4-c,d]indol-2-yl]-2,2-dimethylpropionaldehyde oxime-O-acetic acid], the IC50 turned out to be 0.4 µM.

By IC50 is commonly meant the point on the concentration scale where inhibition reaches its midpoint.
